This note sets out measurements from patent publication US20100216981A1 (Nippon Soda Co., Ltd., priority 2007, published 2010).

Data set [1] has as its target synthetic peptide of tat (HIV tat) (Human immunodeficiency virus type 1 group M subtype B, UniProt P04610, P77S). Nature of the data set: Gel shift assay, inhibition of siRNA binding to synthetic peptide of tat. The conditions noted are these: compound 100 ppm; synthetic peptide of tat 500 nM.
A further data set deals with PTGS-SP p19 of TBSV (Tomato bushy stunt virus, UniProt P11690). Nature of the data set: Surface plasmon resonance (Biacore) inhibition of siRNA binding to p19. The conditions noted are these: read-out: Binding inhibition rate (%) Biacore p19 25 ppm. For orientation: Surface plasmon resonance follows binding to a sensor surface in real time, without labels.
For another data set, the target named is TAV-2b (Tomato aspermy virus, UniProt Q8UYT3). The data set can be described thus: Surface plasmon resonance (Biacore) inhibition of siRNA binding to TAV-2b. The conditions noted are these: read-out: Binding inhibition rate (%) Biacore TAV2b 25 ppm.
The target in data set [2] is T1, tat synthetic peptide (arginine-rich portion) (Human immunodeficiency virus, UniProt P69698 SEQ:1-34).
T1 chain: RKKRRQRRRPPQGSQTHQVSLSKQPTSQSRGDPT
Nature of the data set: EMSA; peptide 500 nM, siRNA 500 uM as printed, 0.005% BSA, 25 C; binding inhibited by small molecules. The conditions noted are these: protein: synthetic; tags: chemically synthesised peptide, Biologica Co., 98% purity; label: 3'-biotin on sense strand; siRNA duplex of two 21-mers.

In the next data set the target is T2, 2b (PTGS suppressor) (Tomato aspermy virus, UniProt Q8UYT3 Q8UYT3:1-95).
T2 sequence: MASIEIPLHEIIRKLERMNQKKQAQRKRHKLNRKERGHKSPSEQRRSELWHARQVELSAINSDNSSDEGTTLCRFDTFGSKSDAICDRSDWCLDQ
Nature of the data set: SPR; siRNA on SA chip; 10 mM HEPES pH 7.4, 150 mM NaCl, 3 mM EDTA; 2b about 10 ug/ml; free siRNA 0.1 uM competes (positive control); small molecules inhibit binding. The conditions noted are these: tags: FLAG (MBP removed with Factor Xa); label: 3'-biotin on sense strand; siRNA duplex of two 21-mers.

The target in another data set is T3, p19 (PTGS suppressor) (Tomato bushy stunt virus, UniProt P11690 P11690:1-172).
T3 sequence: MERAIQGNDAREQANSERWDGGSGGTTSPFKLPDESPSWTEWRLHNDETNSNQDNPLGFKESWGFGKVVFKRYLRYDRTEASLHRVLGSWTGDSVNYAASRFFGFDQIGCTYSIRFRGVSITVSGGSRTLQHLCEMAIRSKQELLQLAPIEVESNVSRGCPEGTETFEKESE
The data set can be described thus: SPR; siRNA on SA chip; 10 mM HEPES pH 7.4, 150 mM NaCl, 3 mM EDTA; p19 about 10 ug/ml; free siRNA 0.1 uM competes (positive control); small molecules inhibit binding. The conditions noted are these: tags: His-tag (pCold I), FLAG; chain copies: 2; label: 3'-biotin on sense strand; siRNA duplex of two 21-mers.

A word on the inhibition: it is the percentage by which the read-out fell short of the control. In the case of `COc1c(OC)c(=O)c1=O` [Compound 1], in data set [1], the “Binding inhibition rate (%) Gel shift tat 100 ppm” value came out at 10%. Besides, the inhibition at 25 ppm on PTGS-SP p19 of TBSV and at TAV-2b was 80% throughout.

Regarding `CC1(C)C(=O)C(C)(C)C1=O` [Compound 2], the results for the inhibition at 25 ppm at PTGS-SP p19 of TBSV and at TAV-2b were 75% and 0%, respectively.

`CCOC(=O)C1CCCC1=O` (centres unmarked) [Compound 3]: the inhibition at 25 ppm at PTGS-SP p19 of TBSV is 0%; on TAV-2b, 90%.

Turning to `CC(=O)C1CCCC1=O` (centres unmarked) [Compound 4], the inhibition at 25 ppm on PTGS-SP p19 of TBSV is 20%; at TAV-2b it was 90%.

In the case of `O=C1C=CC(=O)C1` [Compound 5], in data set [1], the “Binding inhibition rate (%) Gel shift tat 100 ppm” value is recorded as 100%. The inhibition at 25 ppm on PTGS-SP p19 of TBSV and at TAV-2b was 100% in each case.

For the molecule `O=C1CCc2ccccc2C1=O` [Compound 6], the “Binding inhibition rate (%) Gel shift tat 100 ppm” value in data set [1] was 100%. The inhibition at 25 ppm on PTGS-SP p19 of TBSV and on TAV-2b was 100% in each case.

As to `O=C1CCSC1` [Compound 9], the “Binding inhibition rate (%) Gel shift tat 100 ppm” value in data set [1] worked out at 0%. In addition, the inhibition at 25 ppm came out at 95% on PTGS-SP p19 of TBSV and 0% on TAV-2b.

In the case of `O=C1CCCCC1` [Compound 10], the figures for the inhibition at 25 ppm at PTGS-SP p19 of TBSV and on TAV-2b were 70% and 50%, respectively.

As for `O=C1CCC(=O)CC1` [Compound 11], the results for the inhibition at 25 ppm at PTGS-SP p19 of TBSV and at TAV-2b were 70% and 20%, respectively.

As to `O=C1C=CC(=O)C=C1` [Compound 12], the “Binding inhibition rate (%) Gel shift tat 100 ppm” value in data set [1] was 100%. In addition, the inhibition at 25 ppm came out at 100% on PTGS-SP p19 of TBSV and 95% at TAV-2b.

For `O=C1C=C(Cl)C(=O)C(Cl)=C1` [Compound 13], the “Binding inhibition rate (%) Gel shift tat 100 ppm” value in data set [1] is reported as 100%.

Regarding `O=C1C=C(Cl)C(=O)C=C1Cl` [Compound 14], in data set [1], the “Binding inhibition rate (%) Gel shift tat 100 ppm” value is listed as 100%.

Take `O=C1C=C(O)C(=O)C=C1O` [Compound 15]: in data set [1], the “Binding inhibition rate (%) Gel shift tat 100 ppm” value was found to be 80%. In addition, the inhibition at 25 ppm at PTGS-SP p19 of TBSV came to 95%; on TAV-2b it was 100%.

Take `COC1=C(OC)C(=O)C(C)=CC1=O` [Compound 16]: in data set [1], the “Binding inhibition rate (%) Gel shift tat 100 ppm” value turned out to be 0%. Further, the inhibition at 25 ppm on PTGS-SP p19 of TBSV came to 80%; at TAV-2b it was 0%.

In the case of `O=c1c(O)c(O)c(=O)c(=O)c1=O` [Compound 17], the inhibition at 25 ppm on PTGS-SP p19 of TBSV amounted to 100%; at TAV-2b it was 90%.

Take `NC1=CC(=O)CCC1` [Compound 18]: the “Binding inhibition rate (%) Gel shift tat 100 ppm” value in data set [1] worked out at 0%. The inhibition at 25 ppm on PTGS-SP p19 of TBSV is 90%; at TAV-2b, 80%.

In the case of `Cc1occc(=O)c1O` [Compound 19], the “Binding inhibition rate (%) Gel shift tat 100 ppm” value in data set [1] worked out at 0%. Also, the figures for the inhibition at 25 ppm at PTGS-SP p19 of TBSV and at TAV-2b were 90% and 50%, respectively.

`O=C1C=CC(=O)c2c(O)ccc(O)c21` [Compound 20]: in data set [1], the “Binding inhibition rate (%) Gel shift tat 100 ppm” value worked out at 100%. For the same molecule, the results for the inhibition at 25 ppm on PTGS-SP p19 of TBSV and at TAV-2b were 100% and 80%, respectively.

B1: biotinylated siRNA 21 bp (dsRNA)
RNA 1: UUGCUCAACAGUAUGGGCAUU
RNA 2: UGCCCAUACUGUUGAGCAAUU
As to B1, the binding result (in data set [2]; with 2b (PTGS suppressor); with p19 (PTGS suppressor)) was “binds” throughout.
